According to PubChem BioAssay (NCI):
Several values for one entry are separate records, joined by “and”; a condition that tells them apart may be missing. Equal entries are not always repeated.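 Each compound was tested at five concentrations against cells in 96-well plates for 48 hours. The concentration for 50% growth inhibition is given as GI50. TGI denotes the concentration required for complete inhibition of growth.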 Where a SMILES comes first, the peptide text is derived from it. [ ]: non-standard residue; d: D form. Phe(F5) = N[CH](Cc1c(F)c(F)c(F)c(F)c1F)C(=O)O

Experiments:
Assay in all cases: NCI tumour cell line growth inhibition, 48 h
[1] = system: KM20L2 colon
[2] = system: SNB-78 CNS
[3] = system: LXFL 529 NSCLC
[4] = system: MDA-N
[5] = system: DLD-1 colon
[6] = system: RXF-631 renal
[7] = system: XF 498 CNS
[8] = system: DMS 273 small cell lung
[9] = system: HOP-18 NSCLC
[10] = system: P388 leukemia
[11] = system: P388/ADR leukemia
[12] = system: SN12K1 renal

| SMILES | TGI [1] | TGI [2] | TGI [3] | TGI [4] | TGI [5] [µM] | TGI [6] [µM] | TGI [7] | TGI [8] | TGI [9] | further results |
| --- | --- | --- | --- | --- | --- | --- | --- | --- | --- | --- |
| C=C(C)[C@@H]1CC=C(CO)CC1 | 945 µM | 988 µM | 1320 µM | > 10 µM | 922 | 1210 | 680 µM | – | – | – |
| Cn1c(=O)c2[nH]c(/N=N/N3CCN(CCO)CC3)nc2n(C)c1=O | – | – | – | > 100 µM | – | – | – | – | – | – |
| CC1=C2CCCC2C/C(=N/Nc2ccc([N+](=O)[O-])cc2[N+](=O)[O-])CC1 (stereo not drawn) | > 100 µM | – | > 100 µM | – | – | > 100 | > 100 µM | > 100 µM | > 100 µM | – |
| CC1(Sc2ccccc2)CN(Cc2ccccc2)C1=O (stereo not drawn) | > 100 µM | > 100 µM | – | – | > 100 | > 100 | > 100 µM | > 100 µM | > 100 µM | – |
| CC(=O)/C(=C\c1ccco1)C(=O)Nc1ccccc1 | – | > 100 µM | > 100 µM | – | > 100 | – | > 100 µM | – | > 100 µM | – |
| NCC1(N2CCOCC2)C2CCCC21CO (stereo not drawn) | – | > 100 µM | > 100 µM | – | > 100 | – | – | > 100 µM | > 100 µM | – |
| COC(=O)[C@@H]1CSC(=S)N1C(=O)C[C@H]1CC=CC[C@H]1CC(=O)Sc1ccccc1 | 39 µM | 49.2 µM | 30.5 µM | – | 35.3 | – | 34.5 µM | 44.1 µM | 61.1 µM | – |
| CC(=O)[O][Pb]([O]C(C)=O)([c]1ccccc1)[c]1ccccc1 | > 100 µM | 7.63 µM | > 100 µM | – | > 100 | – | – | > 100 µM | > 100 µM | GI50 [8]: 2.88 µM; GI50 [1]: 9.34 µM; GI50 [9]: 6.5 µM; GI50 [2]: 1.45 µM; GI50 [3]: 5.57 µM; GI50 [5]: 6.38 µM |
| O=C(CCn1[nH]c(=O)c(Cl)c(Cl)c1=O)NOCCCc1ccccc1 | > 100 µM | > 100 µM | > 100 µM | – | > 100 | > 100 | > 100 µM | > 100 µM | > 100 µM | – |
| O=C1C/C(=C/c2ccc(/C=C3/CC(=O)N(c4cccc(Br)c4)C3=O)cc2)C(=O)N1c1cccc(Br)c1 | > 100 µM | > 100 µM | > 100 µM | – | > 100 | – | > 79 µM | > 100 µM | > 100 µM | – |
| CCC[CH2][Sn]([CH2]CCC)([O]C(C)=O)[O]C(C)=O | 3.81 µM | 2.33 µM | 1.24 µM | – | 2.58 | – | 2.49 µM | 7.04 µM | 2.72 µM | GI50 [8]: 2.19 µM; GI50 [1]: 1.9 µM; GI50 [9]: 1.42 µM; GI50 [2]: 0.511 µM; GI50 [3]: 0.241 µM; GI50 [5]: 1.19 µM; GI50 [7]: 1.21 µM |
| CC[C@](C)(O)C(=O)O[C@H]1C(=O)O[C@@H]2C[C@H]3C(C)=CC(=O)[C@@H](O)[C@]3(C)[C@H]3[C@@]4(O)OC[C@]32[C@@H]1[C@@H](C)[C@H]4O | 4.77 µM and 16.9 µM | 0.289 µM and 0.28 µM | 0.0317 µM | 2.29 µM | – | 2.77 | – | 0.0425 µM and 0.205 µM | 0.977 µM and 3.23 µM | GI50 [8]: 0.0127 µM; TGI [10]: 0.198 µM; TGI [11]: 9.5 µM; GI50 [1]: 0.267 µM and 0.136 µM; GI50 [9]: 0.162 µM and 0.359 µM; GI50 [2]: 0.0556 µM; TGI [12]: 0.0598 µM |
| O=C(NCCCCCCNC(=O)c1cccc2ccccc12)c1cccc2ccccc12 | > 100 µM | 48.9 µM | > 100 µM | – | > 100 | > 100 | 9.97 µM | 3.46 µM | 76.8 µM | – |
| CS(=O)(=O)CC1=Nc2nnc(CCCCCCCc3nnc4n3C(=O)C(CS(C)(=O)=O)=N4)n2C1=O | > 100 µM | – | > 100 µM | – | – | – | > 100 µM | – | > 100 µM | – |
| O=C1c2ccccc2C(=O)N1CC1(C(=O)O)NCCS1(=O)=O (stereo not drawn) | – | – | – | > 100 µM | – | – | – | – | – | – |
| CN(C)c1ccc2c(NCCCCCCNc3ccnc4cc(N(C)C)ccc34)ccnc2c1 | – | > 100 µM | – | – | > 100 | > 100 | 11.9 µM | 21.3 µM | – | – |
| CCCC(O)[C@@H](O)c1ccc2c(c1O)C(=O)c1c(OC)cccc1C2=O (stereo partly drawn) | > 100 µM | 91.1 µM | – | – | > 100 | 75.4 | 36.3 µM | > 100 µM | > 100 µM | – |
| COC(=O)C(CC(C)C)NC(=O)C(Cc1cnc[nH]1)NC(=O)CNC(=O)C(NC(=O)C(C)NC(=O)C(Cc1c[nH]c2ccccc12)NC(=O)C(CCC(=O)O)NC(=O)C(N)Cc1c(F)c(F)c(F)c(F)c1F)C(C)C (stereo not drawn) (H-[Phe(F5)]EWAVGHL-OMe; configuration not given here) | > 100 µM | > 100 µM | > 100 µM | > 12.5 µM | > 100 | – | > 100 µM | > 100 µM | > 100 µM | – |
| CCc1ccc(NCc2cc(OC)c(OC)c(OC)c2)cc1 | 1.32 µM and 1.64 µM | – | 14 µM and 65.4 µM | 1.17 µM and 0.772 µM | > 100 | – | 21.7 µM and 53.9 µM | 13 µM | > 100 µM | GI50 [8]: 0.19 µM and 0.628 µM; GI50 [9]: 3.4 µM and 27.6 µM; GI50 [3]: 0.523 µM and 1.57 µM; GI50 [4]: < 0.01 µM |

| SMILES | TGI [1] | TGI [2] | TGI [3] | TGI [4] | TGI [5] [µM] | TGI [6] [µM] | TGI [7] | TGI [8] | TGI [9] | further results |
| --- | --- | --- | --- | --- | --- | --- | --- | --- | --- | --- |
| CC(C)(C(=O)NN)c1ccccc1 | – | – | – | > 100 µM | – | – | – | – | – | – |
| NC(=O)OCC(COc1ccc(Cl)cc1)OC(=O)c1ccccc1Cl (stereo not drawn) | 34.9 µM | > 100 µM | 64.6 µM | – | 37.1 | 46 | – | 36.4 µM | 62.8 µM | – |
| COc1cc(/C=C\c2ccccn2)cc(OC)c1OC | > 100 µM | > 100 µM | > 100 µM | – | > 100 | > 100 | > 100 µM | > 100 µM | > 100 µM | – |
| CC12CCC(=O)C=C1CCC1C2CCC2(C)C(C(=O)Cn3cnc4c(=S)nc[nH]c43)CCC12 (stereo not drawn) | – | – | – | > 100 µM | – | – | – | – | – | – |
| CCOP(=O)(OCC)C1CCCCOC1=O (stereo not drawn) | > 100 µM | > 100 µM | > 100 µM | – | > 100 | > 100 | > 100 µM | > 100 µM | > 100 µM | – |
| C=C1C(=O)OC2CC3(C)C=CC(=O)C(=C)C3CC12 (stereo not drawn) | 6.88 µM | 14 µM | 1.93 µM | – | 1.51 | – | 3.35 µM | 2.64 µM | 8.77 µM | – |
| Nc1cc(=O)[nH]c(SC2=NC(N)CC(O)C2)n1 (stereo not drawn) | > 100 µM | > 100 µM | > 100 µM | – | > 100 | – | > 100 µM | > 100 µM | > 100 µM | – |
| CC1CC2C(=O)NC(=O)C2c2[nH]c3ccccc3c21 (stereo not drawn) | – | > 100 µM | > 100 µM | – | > 100 | – | > 100 µM | > 100 µM | – | – |
| Cc1ccc2c(c1)C1(C)OC(CC(N)C1O)O2 (stereo not drawn) | – | – | – | – | > 100 | – | – | > 100 µM | > 100 µM | – |
| O=C(O)CSSCC(=O)O | – | – | – | > 100 µM | – | – | – | – | – | – |
| COC12C=CC(CC1)c1c(O)ccc(O)c12 (stereo not drawn) | > 100 µM | > 100 µM | > 71.3 µM | – | > 100 | – | 44 µM | > 87 µM | > 100 µM | – |
| COC(=O)CCC(=O)N1Cc2cc(C)ccc2N(C(=O)CCC(=O)OC)Cc2cc(C)ccc21 | – | > 100 µM | – | – | > 100 | – | > 100 µM | > 100 µM | > 100 µM | – |
| CC1=CC(=O)c2c(O)cccc2C1=O | – | – | – | 3.23 µM | – | – | – | – | – | – |
| CC1Oc2cc3c(-c4c(O)cc(O)c5c(O)c6c(cc45)OC(C)C(C)C6=O)c(O)cc(O)c3c(O)c2C(=O)C1C (stereo not drawn) | – | – | – | 1.58 µM | – | – | – | – | – | – |
| O=C(O)CS(=O)(=O)C(c1ccccc1)c1ccccc1 | – | – | – | > 100 µM | – | – | – | – | – | – |
| C=C1C(=O)O[C@H]2C[C@@H](C)[C@@H]3CC(=O)OC[C@@]3(C)CC12 (stereo partly drawn) | 52.2 µM | – | – | – | 74.3 | – | – | > 100 µM | > 100 µM | – |
| O=C(CC1Sc2ccccc2NC1=O)Nc1cc(Cl)ccc1Cl (stereo not drawn) | > 100 µM | > 100 µM | > 100 µM | – | > 100 | > 100 | – | > 100 µM | – | – |
| O=C(O)[C@@H]1C2CC([C@@H]1C(=O)O)[C@H](N1C(=O)CCC1=O)[C@@H]2Br (stereo partly drawn) | – | – | – | > 100 µM | – | – | – | – | – | – |
| COC(=O)c1[nH]c(=S)[nH]c(=O)c1-c1ccc(Cl)cc1 | > 50 µM | > 50 µM | > 50 µM | – | > 50 | > 50 | > 50 µM | > 50 µM | – | – |
